The results in this text go back to patent publication US12134759B2, “Glomerulus on a chip to recapitulate glomerular filtration barrier” (Children's Hospital Los Angeles, priority 2019, dated 2024).

Data set [1] concerns GOAC (human podocytes + hGEC glomerular filtration barrier). Kind of data set: Albumin permselectivity assay on the GOAC after puromycin aminonucleoside (PAN) injury. In kind it is cell-based. The following applies: PAN 5 days (10 μg/ml, 10 mg/ml elsewhere in the source); albumin-FITC 40 mg/ml; hAKPC-P+hGEC, hiPOD+hGEC, hpPOD+hGEC chips. On the procedure: (§1) An albumin and inulin permeability assay were established to evaluate the efficiency of the created GFB. The number of chips used for each experiment is described in the corresponding figure legend. Media was aspirated from the bottom inlet and outlet, to which PBS was added. Then, media from the top inlet and outlet was aspirated. Fifty microliters albumin-FITC (Millipore Sigma, c #A9771) or inulin-FITC (10 mg/ml, Sigma, c #F3272) was added to the top inlet and outlet, such that the orientation of filtration would be simulated as in native blood flow: from endothelial cells, through podocytes, and into the urinary space of Bowman's capsule. […] Absorbance was measured using the Perkin Elmer Victor 3 plate reader using Wallac 1420 workstation software (fluorescein 485/535, 0.1 s). For long-term studies, the same chips were evaluated for permselectivity at respectively 1, 2, 3, and 4 weeks (hAKPC and hpPOD; hiPOD were evaluated for weeks 1 and 2 since after this time frame these chips are not properly functioning) after hGEC seeding. […] After each reading, as described above, the albumin-FITC solution and PBS were removed from the top and bottom inlets and outlets and chips were carefully rinsed with PBS twice to remove excess albumin-FITC before returning to fresh culture medium. […] Efficiency at each time point is expressed as %±SEM. […]

In the next data set the test system is podocytes in GOAC. Kind of data set: F-actin staining of podocytes in the GOAC before and after PAN damage. The following applies: after PAN damage; hAKPC-P+hGEC, hiPOD+hGEC, hpPOD+hGEC chips. In kind it is cell-based, human. On the procedure:
Immunofluorescent staining was performed on OrganoPlate™ and chamber slides of representative cell types: following fixation by 4% paraformaldehyde (Santa Cruz Biotechnology c #sc-281692) and serial washes with PBS. Chips/wells of interest were prepared for staining by blocking with 5% bovine serum albumin (Jackson ImmunoResearch Lab, c #001-000-162) in PBS for 30 min. Primary, secondary, and pre-conjugated antibodies were diluted in 2.5% BSA Jackson ImmunoResearch Lab. c #001-000-162) as indicated in Table 1. Thirty microliters of solution were added to the top and bottom inlets and outlets of the chips or 100 μl of solution was added directly into the chamber slide wells. Primary antibodies were incubated at RT for 1 h; following serial washes, secondary antibodies were incubated at RT for 30 min. After a final series of washes in PBS, DAPI was applied (1:1000 in PBS; BD Pharmingen, c #564907) and the OrganoPlate™ or the wells were stored at 4° C. until imaged by confocal microscopy (Zeiss 710 microscope) and processed using the ZEN10 software.
In all, 10 μg/ml of PAN, a nephrotoxic molecule (Cayman Chemical c #15509), was supplemented to the media for 5 days. Media without PAN was used as a control. […] After PAN injury, damage was assessed using the albumin assay performed on the chip as described above.

In a further data set the test system is hAKPC-P+hGEC GOAC. Kind of data set: α-MSH drug rescue of MN serum effect, albumin permselectivity assay. The data set is classed as cell-based, human. Particulars: 10 ng/ml α-MSH with 0.5% MN serum (MN3), 24 h; filtrate at 60 min. On the procedure: as §1

Entries after “also recorded” stand apart in the source; their conditions may differ. No end group written: not given here.

Take `CN(C)c1ncnc2c1ncn2[C@@H]1O[C@H](CO)[C@@H](N)[C@H]1O` [PAN, puromycin aminonucleoside]: the “albumin permselectivity / albumin leakage (fluorescein absorbance in filtrate after 60 min)” value in data set [1] was “loss of permselectivity for albumin; also recorded: marked and statistically significant increase”. Further, the “podocyte cytoskeleton (F-actin staining)” value in the data set on podocytes in GOAC is recorded as “cytoskeleton rearrangement; also recorded: widespread disruption of the cytoskeleton”. As for “α-Melanocyte-stimulating hormone (SYSMEHFRWGKPV; ends and bridges not checked; UniProt P01189 138-150, looked up) [α-MSH]”, the “proteinuria (albumin-FITC leakage) elicited by MN serum” value in the data set on hAKPC-P+hGEC GOAC was “prevented proteinuria elicited by MN serum; also recorded: prevented the proteinuric effects of MN sera”.
